Source: ChEMBL document CHEMBL5316318, “Structural Modification and Pharmacological Evaluation of Substituted Quinoline-5,8-diones as Potent NSD2 Inhibitors” (J Med Chem, 2023)
Active and inactive are the calls of the source. The calls are words filed in the database; no cut-off is given here.

Columns and labels:
KMS-11 [1] = test: Induction of apoptosis in human KMS-11 cells assessed as live cells at 0.8 uM incubated for 72 hrs by Annexin V-FITC/PI staining based flow cytometry analysis (reference value: 83.1%); assay type: functional
HL-60 = test: Antiproliferative activity against human HL-60 cells harboring wild type NSD2 assessed as inhibition of cell growth incubated for 6 days by CCK-8 assay; assay type: functional, cell-based; settings: HL-60, 144 h
KMS-11 [2] = test: Induction of apoptosis in human KMS-11 cells assessed as early apoptotic cells at 0.8 uM incubated for 72 hrs by Annexin V-FITC/PI staining based flow cytometry analysis (reference value: 3.96%); assay type: functional
[3] = biological target: Histone-lysine N-methyltransferase EZH2 (Homo sapiens, UniProt Q15910); test: Inhibition of EZH2 (unknown origin) using SAM as substrate preincubated for 10 mins followed by substrate addition and measured after 4 hrs by HTRF analysis
[4] = AUClast in ICR mouse at 3 mg/kg, po measured for 24 hrs by LC-MS/MS analysis; assay type: ADME, organism-based; set-up: dose 3 mg/kg, time 24 hrs, route po; settings: in vivo
KMS-11 [5] = test: Induction of apoptosis in human KMS-11 cells assessed as late apoptotic cells at 0.8 uM incubated for 72 hrs by Annexin V-FITC/PI staining based flow cytometry analysis (reference value: 6.47%); assay type: functional
[6] = biological target: Basement membrane-specific heparan sulfate proteoglycan core protein (Homo sapiens) (UniProt P98160); test: Inhibition of HSPG2 transcriptional activation in human KMS-11 cells assessed as reduction in H3K36me2 level in promoter region by ChIP-qPCR analysis; assay type: cell-based
[7] = biological target: T1, Histone-lysine N-methyltransferase NSD2 (Homo sapiens, UniProt O96028); test: Inhibition of recombinant human NSD2 (941 to 1240 residues) using SAM as substrate incubated for 3 hrs by AlphaLISA assay
T1 sequence (O96028 whole entry): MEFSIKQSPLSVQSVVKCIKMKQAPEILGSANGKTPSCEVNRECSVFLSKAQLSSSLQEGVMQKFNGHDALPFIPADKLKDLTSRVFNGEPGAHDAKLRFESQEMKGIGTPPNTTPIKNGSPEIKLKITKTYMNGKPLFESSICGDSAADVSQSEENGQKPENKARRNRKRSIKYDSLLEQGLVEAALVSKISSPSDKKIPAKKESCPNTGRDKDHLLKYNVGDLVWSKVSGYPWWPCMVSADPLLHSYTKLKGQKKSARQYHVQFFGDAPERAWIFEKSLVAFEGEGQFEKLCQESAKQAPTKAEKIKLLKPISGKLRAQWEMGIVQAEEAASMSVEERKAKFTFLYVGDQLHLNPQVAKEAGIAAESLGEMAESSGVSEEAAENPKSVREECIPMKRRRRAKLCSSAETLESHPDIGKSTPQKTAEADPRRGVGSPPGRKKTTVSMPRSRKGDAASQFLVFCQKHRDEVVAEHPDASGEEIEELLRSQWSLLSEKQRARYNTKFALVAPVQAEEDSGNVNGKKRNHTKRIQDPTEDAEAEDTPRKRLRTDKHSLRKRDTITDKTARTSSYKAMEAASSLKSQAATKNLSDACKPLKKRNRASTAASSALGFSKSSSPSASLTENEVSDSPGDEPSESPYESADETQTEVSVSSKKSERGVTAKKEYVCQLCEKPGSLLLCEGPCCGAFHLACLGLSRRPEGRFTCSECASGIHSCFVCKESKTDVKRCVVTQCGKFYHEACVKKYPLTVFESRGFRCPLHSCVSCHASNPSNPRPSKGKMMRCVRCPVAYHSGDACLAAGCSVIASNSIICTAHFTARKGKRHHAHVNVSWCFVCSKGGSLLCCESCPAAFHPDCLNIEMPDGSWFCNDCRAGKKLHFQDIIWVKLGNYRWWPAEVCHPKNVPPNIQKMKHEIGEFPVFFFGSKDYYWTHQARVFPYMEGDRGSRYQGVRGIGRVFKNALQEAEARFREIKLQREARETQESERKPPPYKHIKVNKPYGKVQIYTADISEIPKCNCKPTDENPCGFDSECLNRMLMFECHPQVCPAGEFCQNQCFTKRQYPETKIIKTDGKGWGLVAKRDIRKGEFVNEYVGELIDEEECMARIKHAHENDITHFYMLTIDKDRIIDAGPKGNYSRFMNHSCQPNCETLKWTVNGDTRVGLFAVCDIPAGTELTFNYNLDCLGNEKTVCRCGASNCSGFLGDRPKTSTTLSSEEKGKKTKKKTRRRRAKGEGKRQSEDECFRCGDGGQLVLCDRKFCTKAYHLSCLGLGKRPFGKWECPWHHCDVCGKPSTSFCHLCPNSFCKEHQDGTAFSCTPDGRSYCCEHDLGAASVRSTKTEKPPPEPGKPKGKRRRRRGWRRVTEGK

[8] = Half life in ICR mouse at 3 mg/kg, po measured for 24 hrs by LC-MS/MS analysis; assay type: ADME, organism-based; settings: in vivo
Daudi = test: Antiproliferative activity against human Daudi cells assessed as inhibition of cell growth incubated for 6 days by CCK-8 assay; assay type: functional, cell-based; settings: 144 h
KMS-11 [9] = test: Induction of apoptosis in human KMS-11 cells assessed as dead cells at 0.8 uM incubated for 72 hrs by Annexin V-FITC/PI staining based flow cytometry analysis (reference value: 6.48%); assay type: functional
[10] = biological target: Protransforming growth factor alpha (Homo sapiens) (UniProt P01135); test: Inhibition of TGFA transcriptional activation in human KMS-11 cells assessed as reduction in H3K36me2 level in promoter region by ChIP-qPCR analysis; assay type: cell-based
THP-1 = test: Antiproliferative activity against human THP-1 cells harboring wild type NSD2 assessed as inhibition of cell growth incubated for 6 days by CCK-8 assay; assay type: functional, cell-based; settings: THP-1, 144 h
KMS-11 [11] = test: Antitumor activity against human KMS-11 cells xenografted in SCID mouse assessed as tumor growth inhibition at 75 mg/kg, po administered daily for 21 days and measured every 3 days relative to control; assay type: functional; settings: KMS-11, 504 h, time 21 day, read-out: TGI
KMS-11 [12] = test: Induction of apoptosis in human KMS-11 cells assessed as upregulation of BID protein expression at 0.2 to 0.8 uM by Western blot analysis; assay type: functional, cell-based; settings: dose 0.2-0.8 µM
[13] = AUClast in ICR mouse at 1 mg/kg, iv measured for 24 hrs by LC-MS/MS analysis; assay type: ADME, organism-based; set-up: dose 1 mg/kg, time 24 hrs, route iv; settings: in vivo
KMS-11 [14] = test: Modulation of Hippo signaling pathway in human KMS-11 cells at 1 uM incubated for 48 hrs by RNA-Seq analysis; assay type: cell-based; settings: filed as modulator
[15] = biological target: Histone-arginine methyltransferase CARM1 (Homo sapiens, UniProt Q86X55); test: Inhibition of PRMT4 (unknown origin) by AlphaLISA assay
KMS-11 [16] = test: Induction of apoptosis in human KMS-11 cells assessed as late apoptotic cells at 0.5 uM incubated for 72 hrs by Annexin V-FITC/PI staining based flow cytometry analysis (reference value: 6.47%); assay type: functional
KMS-11 [17] = test: Induction of apoptosis in human KMS-11 cells assessed as dead cells at 0.5 uM incubated for 72 hrs by Annexin V-FITC/PI staining based flow cytometry analysis (reference value: 6.48%); assay type: functional

Sequence of Histone-arginine methyltransferase CARM1 (Q86X55 whole entry): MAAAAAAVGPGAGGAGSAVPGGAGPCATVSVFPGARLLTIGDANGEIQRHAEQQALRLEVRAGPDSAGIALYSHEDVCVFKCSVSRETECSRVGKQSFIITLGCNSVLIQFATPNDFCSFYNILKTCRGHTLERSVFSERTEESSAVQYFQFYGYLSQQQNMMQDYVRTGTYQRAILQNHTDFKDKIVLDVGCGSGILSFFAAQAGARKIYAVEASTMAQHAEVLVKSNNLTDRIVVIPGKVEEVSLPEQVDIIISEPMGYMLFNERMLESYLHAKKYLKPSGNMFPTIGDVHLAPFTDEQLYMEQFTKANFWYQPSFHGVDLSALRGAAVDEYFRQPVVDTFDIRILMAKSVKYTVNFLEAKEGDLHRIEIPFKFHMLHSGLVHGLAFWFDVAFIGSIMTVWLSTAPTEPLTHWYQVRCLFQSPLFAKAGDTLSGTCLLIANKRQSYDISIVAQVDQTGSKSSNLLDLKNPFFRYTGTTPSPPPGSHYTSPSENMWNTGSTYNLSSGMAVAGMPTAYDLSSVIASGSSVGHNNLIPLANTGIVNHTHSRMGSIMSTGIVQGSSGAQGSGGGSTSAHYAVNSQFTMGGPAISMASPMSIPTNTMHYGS
Sequence of Protransforming growth factor alpha (Homo sapiens) (P01135 whole entry): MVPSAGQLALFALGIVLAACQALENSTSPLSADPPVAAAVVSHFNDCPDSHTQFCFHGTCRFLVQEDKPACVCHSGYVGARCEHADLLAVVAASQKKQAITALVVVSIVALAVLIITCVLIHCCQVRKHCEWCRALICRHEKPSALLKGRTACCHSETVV
Sequence of Histone-lysine N-methyltransferase EZH2 (Q15910 whole entry): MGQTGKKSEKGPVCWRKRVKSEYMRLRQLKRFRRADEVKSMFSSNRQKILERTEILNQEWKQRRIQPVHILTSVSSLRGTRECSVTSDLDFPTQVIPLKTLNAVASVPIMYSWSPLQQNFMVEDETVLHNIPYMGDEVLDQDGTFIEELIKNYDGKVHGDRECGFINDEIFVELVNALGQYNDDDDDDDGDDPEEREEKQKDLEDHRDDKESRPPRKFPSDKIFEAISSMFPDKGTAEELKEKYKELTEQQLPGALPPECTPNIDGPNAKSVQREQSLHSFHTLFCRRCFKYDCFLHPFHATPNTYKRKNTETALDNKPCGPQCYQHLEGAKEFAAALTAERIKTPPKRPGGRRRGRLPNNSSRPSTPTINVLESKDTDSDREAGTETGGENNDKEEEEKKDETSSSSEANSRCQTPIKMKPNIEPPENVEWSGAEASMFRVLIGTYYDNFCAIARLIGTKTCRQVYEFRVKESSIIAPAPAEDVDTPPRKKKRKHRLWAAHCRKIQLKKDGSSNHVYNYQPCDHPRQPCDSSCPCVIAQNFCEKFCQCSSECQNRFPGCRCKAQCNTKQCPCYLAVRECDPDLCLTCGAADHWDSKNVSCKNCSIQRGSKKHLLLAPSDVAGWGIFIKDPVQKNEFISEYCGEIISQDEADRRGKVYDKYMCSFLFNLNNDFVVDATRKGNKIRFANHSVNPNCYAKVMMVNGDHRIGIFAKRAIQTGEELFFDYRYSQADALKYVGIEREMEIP

Question: With `CC#CC(=O)NC12CC(NC3=C(Cl)C(=O)c4ncccc4C3=O)(C1)C2` as the compound, how does the Activity (KMS-11 [1]) read?
Answer: 55%

Question: What about the IC50 (HL-60) of the same compound?
Answer: 2660 nM

Question: What about the Activity (KMS-11 [2]) of the same compound?
Answer: 19.3%

Question: And the IC50 [3]?
Answer: 250 nM

Question: What about the AUC(0-t) at 24 h [4] of the same compound?
Answer: 42700 ng·h/mL

Question: And the Activity (KMS-11 [5])?
Answer: 19.7%

Question: And the inhibition [6]?
Answer: Active

Question: And the IC50 [7]?
Answer: 230 nM

Question: And the half-life [8]?
Answer: 403 min

Question: And the IC50 (Daudi)?
Answer: 12.8 µM

Question: And the Activity (KMS-11 [9])?
Answer: 5.98%

Question: What about the inhibition [10] of the same compound?
Answer: Active

Question: And the IC50 (THP-1)?
Answer: 2640 nM

Question: What about the inhibition in vivo at 75 mg/kg (KMS-11 [11]) of the same compound?
Answer: 56%

Question: And the Activity (KMS-11 [12])?
Answer: Active

Question: What about the AUC(0-t) at 24 h [13] of the same compound?
Answer: 5180 ng·h/mL

Question: What about the Activity (KMS-11 [14]) of the same compound?
Answer: Active

Question: And the IC50 [15]?
Answer: > 10 µM

Question: And the Activity (KMS-11 [16])?
Answer: 15.7%

Question: What about the Activity (KMS-11 [17]) of the same compound?
Answer: 6.33%
